This is an account of results in patent publication US20260116921A1, “PEPTIDE INHIBITORS OF INTERLEUKIN-23 RECEPTOR AND THEIR USE TO TREAT INFLAMMATORY DISEASES” (priority 2018, published 2026).

Data set [1] in a line: in vitro. The settings on record: both, SD, rat, plasma (EDTA).
Data set [2] in a line: in vitro. The note with it: human, 20% fecal homogenate (supernatant), anaerobic, pH 6.8.
Data set [3] is described as follows: in vitro. The note with it: cynomolgus monkey, 20% fecal homogenate (supernatant), anaerobic, pH 6.8.
The next data set deals with NK cells. The data set can be described thus: NK cell based assay (IL-23/IL-18-induced IFNγ, Quantikine ELISA). The note with it: human primary NK cells, IL-23 at EC50 to EC75 + IL-18 10 ng/mL, IFNγ after 20 to 24 hours. Here is the method: killer (NK) cells, purified from human peripheral blood of healthy donors by negative selection (Miltenyi Biotech, Cat #130-092-657), were cultured in complete media (RPMI 1640 containing […], L-glutamine and penicillin-streptomycin) in the presence of IL-2 (RnD, Cat #202-IL-010/CF) at 25 ng/mL. After 7 days, cells were centrifuged, and resuspended in complete media at IE6 cells/mL. […] After 20 to 24 hours, IFNγ in the supernatant was quantified using Quantikine ELISA (RnD, Cat #DIF50).
In general terms: ELISA stands for enzyme-linked immunosorbent assay.

For the next data set, the target named is T1, IL-23R (Homo sapiens, UniProt Q5VWK5).
T1 sequence (Q5VWK5 24-629): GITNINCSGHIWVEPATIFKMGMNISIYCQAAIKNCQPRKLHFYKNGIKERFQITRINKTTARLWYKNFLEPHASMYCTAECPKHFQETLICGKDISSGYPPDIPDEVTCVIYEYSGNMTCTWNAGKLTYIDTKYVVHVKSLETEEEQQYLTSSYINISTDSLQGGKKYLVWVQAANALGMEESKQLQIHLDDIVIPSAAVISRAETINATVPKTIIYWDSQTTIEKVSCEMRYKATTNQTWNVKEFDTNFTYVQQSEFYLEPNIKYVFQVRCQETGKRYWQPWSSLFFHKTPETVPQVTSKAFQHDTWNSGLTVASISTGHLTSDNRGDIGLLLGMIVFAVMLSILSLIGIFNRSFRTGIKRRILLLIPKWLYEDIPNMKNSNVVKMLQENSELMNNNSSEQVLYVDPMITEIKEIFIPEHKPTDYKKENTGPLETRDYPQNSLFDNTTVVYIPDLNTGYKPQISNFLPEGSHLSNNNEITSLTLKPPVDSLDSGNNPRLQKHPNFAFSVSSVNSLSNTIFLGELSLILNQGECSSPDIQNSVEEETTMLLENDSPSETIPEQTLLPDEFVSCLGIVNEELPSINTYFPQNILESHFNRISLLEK
The data set can be described thus: DB cells IL23R pSTAT3 cell assay (pStat3 HTRF). The settings on record: Table E3; DB cells, IL-23 0.5 nM, 30 minutes at 37° C.; read-out: pStat3 HTRF (IC50). The class given is cell-based. In a few lines: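 DB cells (5×10E5/well, RPMI-1640 + 10% FBS) stimulated with 0.5 nM final IL-23 plus serially diluted test peptides for 30 min at 37 °C, 5% CO2. Phospho-STAT3 (Tyr705) in lysates measured by HTRF using a two-plate protocol.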
A general note: TR-FRET usually uses a lanthanide donor and a delayed reading to cut background.

Bridge positions count the residues as written; N and C are the ends. Square brackets hold non-standard residues; d marks the D form. Peptide text beside a SMILES is read from it. Trp(7-Me) = Cc1cccc2c(C[C@H](N)C(=O)O)c[nH]c12; 2Nal = N[C@@H](Cc1ccc2ccccc2c1)C(=O)O; AEF = NCCOc1ccc(C[C@H](N)C(=O)O)cc1; Cit = NC(=O)NCCC[C@H](N)C(=O)O; αMeL = CC(C)C[C@](C)(N)C(=O)O; Pen = CC(C)(S)[C@H](N)C(=O)O; αMeK = C[C@](N)(CCCCN)C(=O)O; βAla = NCCC(=O)O

What is called half-life is the time needed for the level to fall by half in the phase considered. A lower half-life goes with rapid decline. What is called IC50 is the concentration that inhibits the measured activity by half. Regarding `CC(=O)NCCCC[C@H](NC(=O)[C@](C)(CC(C)C)NC(=O)[C@H](Cc1ccc2ccccc2c1)NC(=O)[C@H](Cc1ccc(OCCN)cc1)NC(=O)[C@H]1NC(=O)[C@H](CCC(N)=O)NC(=O)[C@H](Cc2c[nH]c3c(C)cccc23)NC(=O)[C@H]([C@@H](C)O)NC(=O)[C@H](CC(N)=O)NC(=O)[C@@H](NC(C)=O)C(C)(C)SSC1(C)C)C(=O)N[C@H](C(=O)NCCC(N)=O)[C@@H](C)O` [compound 217], the results for the half-life at 20 μM in the data set “in vitro [1]”, in “in vitro [2]” and in the data set “in vitro [3]” were 2 h, above 24 h and above 24 h, respectively. Moreover, the IC50 with NK cells was 11 to 100 nM; at IL-23R it was 1 to 10 nM.
On to `CC(=O)NCCCC[C@H](NC(=O)[C@](C)(CC(C)C)NC(=O)[C@H](Cc1ccc2ccccc2c1)NC(=O)[C@H](Cc1ccc(OCCN)cc1)NC(=O)[C@H]1NC(=O)[C@H](CCC(N)=O)NC(=O)[C@H](Cc2c[nH]c3c(C)cccc23)NC(=O)[C@H]([C@@H](C)O)NC(=O)[C@H](CC(N)=O)NC(=O)[C@@H](NC(C)=O)C(C)(C)SSC1(C)C)C(=O)N(C)[C@@H](C)C(=O)NCCC(N)=O` [compound 223], for which the half-life at 20 μM is 9 h in the data set “in vitro [1]”, above 24 h in the data set “in vitro [2]” and above 24 h in “in vitro [3]”. The concentration for half-maximal inhibition (IC50) in the data set with NK cells is below 10 nM; at IL-23R, above 100 nM.
For the compound `CC(=O)NCCCC[C@H](NC(=O)[C@](C)(CC(C)C)NC(=O)[C@H](Cc1ccc2ccccc2c1)NC(=O)[C@H](Cc1ccc(OCCN)cc1)NC(=O)[C@H]1NC(=O)[C@H](CCC(N)=O)NC(=O)[C@H](Cc2c[nH]c3c(C)cccc23)NC(=O)[C@H]([C@@H](C)O)NC(=O)[C@H](CC(N)=O)NC(=O)[C@@H](NC(C)=O)C(C)(C)SSC1(C)C)C(=O)NCCC(=O)NCCC(N)=O` [compound 226], the half-life at 20 μM in “in vitro [1]” was 8 h; in the data set “in vitro [2]”, above 24 h; in the data set “in vitro [3]”, above 24 h. For the same compound, the IC50 was below 10 nM in the data set on NK cells and 10 to 100 nM at IL-23R.
On to `CC(=O)NCCCC[C@H](NC(=O)[C@](C)(CCCCN)NC(=O)[C@H](Cc1ccc2ccccc2c1)NC(=O)[C@H](Cc1ccc(OCCN)cc1)NC(=O)[C@H]1NC(=O)[C@H](CCC(N)=O)NC(=O)[C@H](Cc2cn(C)c3ccccc23)NC(=O)[C@H]([C@@H](C)O)NC(=O)[C@H](CC(N)=O)NC(=O)[C@@H](NC(C)=O)C(C)(C)SSC1(C)C)C(=O)N[C@@H](CC(N)=O)C(=O)NCCC(N)=O` [compound 232], for which the half-life at 20 μM in the data set “in vitro [1]” was above 24 h; in the data set “in vitro [2]” it was above 24 h; in the data set “in vitro [3]” it was 10 h. Also, the IC50 in the data set on NK cells was below 10 nM; on IL-23R it was 1 to 10 nM.
Take `CC(=O)NCCCC[C@H](NC(=O)[C@](C)(CC(C)C)NC(=O)[C@H](Cc1ccc2ccccc2c1)NC(=O)[C@H](Cc1ccc(OCCN)cc1)NC(=O)[C@H]1NC(=O)[C@](C)(CCCCN)NC(=O)[C@H](Cc2c[nH]c3c(C)cccc23)NC(=O)[C@H]([C@@H](C)O)NC(=O)[C@H](CC(N)=O)NC(=O)[C@@H](NC(C)=O)C(C)(C)SSC1(C)C)C(=O)N[C@@H](CC(N)=O)C(=O)NCCC(N)=O` [compound 234]: the half-life at 20 μM is 7 h in the data set “in vitro [1]”, above 24 h in the data set “in vitro [2]” and above 24 h in “in vitro [3]”. The results for the IC50 in the data set on NK cells and at IL-23R were below 10 nM and 1 to 10 nM, respectively.
In the case of `CC(=O)NCCCC[C@H](NC(=O)[C@](C)(CCCCN)NC(=O)[C@H](Cc1ccc2ccccc2c1)NC(=O)[C@H](Cc1ccc(OCCN)cc1)NC(=O)[C@H]1NC(=O)[C@](C)(CC(C)C)NC(=O)[C@H](Cc2c[nH]c3c(C)cccc23)NC(=O)[C@H]([C@@H](C)O)NC(=O)[C@H](CC(N)=O)NC(=O)[C@@H](NC(C)=O)C(C)(C)SSC1(C)C)C(=O)N[C@@H](CC(N)=O)C(=O)NCCC(N)=O` [compound 235] (Ac-[Pen]NT[Trp(7-Me)][αMeL][Pen][AEF][2Nal][αMeK]K(Ac)N[βAla]-NH2; disulfide 1-6), the half-life at 20 μM in the data set “in vitro [1]” is 5 h; in the data set “in vitro [2]”, above 24 h; in the data set “in vitro [3]”, above 24 h. The IC50 in the data set on NK cells was in the range of 11 to 100 nM; at IL-23R, 1 to 10 nM.
Consider `CC(=O)N[C@@H]1C(=O)N[C@@H](CC(N)=O)C(=O)N[C@@H]([C@@H](C)O)C(=O)N[C@@H](Cc2c[nH]c3c(C)cccc23)C(=O)N[C@@H](CCC(N)=O)C(=O)N[C@H](C(=O)N[C@@H](Cc2ccc(OCCN)cc2)C(=O)N[C@@H](Cc2ccc3ccccc3c2)C(=O)N[C@@](C)(CCCCN)C(=O)NC(C)(C)C(=O)N[C@@H](CC(N)=O)C(=O)NCCC(N)=O)C(C)(C)SSC1(C)C` [compound 236], for which the half-life at 20 μM is above 19.8 h in “in vitro [1]”, above 24 h in “in vitro [2]” and above 24 h in “in vitro [3]”. Also, the IC50 was below 10 nM in the data set on NK cells and 1 to 10 nM at IL-23R.
Consider `CC(=O)NCCCC[C@H](NC(=O)[C@](C)(CCCCN)NC(=O)[C@H](Cc1ccc2ccccc2c1)NC(=O)[C@H](Cc1ccc(OCCN)cc1)NC(=O)[C@H]1NC(=O)[C@H](CCC(N)=O)NC(=O)[C@H](Cc2c[nH]c3c(C)cccc23)NC(=O)[C@H]([C@@H](C)O)NC(=O)[C@H](CCCNC(N)=O)NC(=O)[C@@H](NC(C)=O)C(C)(C)SSC1(C)C)C(=O)N[C@@H](CC(N)=O)C(=O)NCCC(N)=O` [compound 238] (Ac-[Pen][Cit]T[Trp(7-Me)]Q[Pen][AEF][2Nal][αMeK]K(Ac)N[βAla]-NH2; disulfide 1-6), for which the half-life at 20 μM in the data set “in vitro [1]” was above 24 h; in the data set “in vitro [2]”, above 24 h; in the data set “in vitro [3]” it was 7 h. The 50% inhibitory concentration (IC50) with NK cells is below 10 nM; on IL-23R, 1 to 10 nM.
Turning to `CC(=O)NCCCC[C@@H]1NC(=O)[C@@H](NC(C)=O)C(C)(C)SSC(C)(C)[C@@H](C(=O)N[C@@H](Cc2ccc(OCCN)cc2)C(=O)N[C@@H](Cc2ccc3ccccc3c2)C(=O)N[C@@](C)(CCCCN)C(=O)N[C@@H](CCCCNC(C)=O)C(=O)N[C@@H](CC(N)=O)C(=O)NCCC(N)=O)NC(=O)[C@H](CCC(N)=O)NC(=O)[C@H](Cc2c[nH]c3c(C)cccc23)NC(=O)[C@H]([C@@H](C)O)NC1=O` [compound 239], the half-life at 20 μM was above 24 h in “in vitro [1]”, above 24 h in “in vitro [2]” and 7 h in “in vitro [3]”. For the same compound, the IC50 was below 10 nM with NK cells and 1 to 10 nM on IL-23R.
In the case of `CC(=O)NCCCC[C@@H]1NC(=O)[C@H](Cc2c[nH]c3c(C)cccc23)NC(=O)[C@H]([C@@H](C)O)NC(=O)[C@H](CC(N)=O)NC(=O)[C@@H](NC(C)=O)C(C)(C)SSC(C)(C)[C@@H](C(=O)N[C@@H](Cc2ccc(OCCN)cc2)C(=O)N[C@@H](Cc2ccc3ccccc3c2)C(=O)N[C@@](C)(CCCCN)C(=O)N[C@@H](CCCCNC(C)=O)C(=O)N[C@@H](CC(N)=O)C(=O)NCCC(N)=O)NC1=O` [compound 242], the half-life at 20 μM was above 24 h in “in vitro [1]”, above 24 h in “in vitro [2]” and 8 h in the data set “in vitro [3]”. The values for the IC50 in the data set with NK cells and at IL-23R were below 10 nM and below 1 nM, respectively.
In the case of `CC(=O)NCCCC[C@@H]1NC(=O)[C@H](Cc2c[nH]c3c(C)cccc23)NC(=O)[C@H]([C@@H](C)O)NC(=O)[C@H](CC(N)=O)NC(=O)[C@@H](NC(C)=O)C(C)(C)SSC(C)(C)[C@@H](C(=O)N[C@@H](Cc2ccc(OCCN)cc2)C(=O)N[C@@H](Cc2ccc3ccccc3c2)C(=O)N[C@@](C)(CCCCN)C(=O)N[C@@H](CCCCNC(C)=O)C(=O)N[C@@H](Cc2c[nH]cn2)C(=O)NCCC(N)=O)NC1=O` [compound 272], the half-life at 20 μM in “in vitro [1]”, in “in vitro [2]” and in “in vitro [3]” was above 24 h throughout. The figures for the IC50 in the data set with NK cells and at IL-23R were below 10 nM and 1 to 10 nM, respectively.
